The values below come from patent US11111251B2, “Positive allosteric modulators of the muscarinic acetylcholine receptor M1” (Vanderbilt University, priority 2016, dated 2021).

Like-named read-outs stand apart in the source and are kept apart here.

This assay addresses T1, human mAChR M1 (Homo sapiens, UniProt P11229).
T1 sequence (P11229 1-460): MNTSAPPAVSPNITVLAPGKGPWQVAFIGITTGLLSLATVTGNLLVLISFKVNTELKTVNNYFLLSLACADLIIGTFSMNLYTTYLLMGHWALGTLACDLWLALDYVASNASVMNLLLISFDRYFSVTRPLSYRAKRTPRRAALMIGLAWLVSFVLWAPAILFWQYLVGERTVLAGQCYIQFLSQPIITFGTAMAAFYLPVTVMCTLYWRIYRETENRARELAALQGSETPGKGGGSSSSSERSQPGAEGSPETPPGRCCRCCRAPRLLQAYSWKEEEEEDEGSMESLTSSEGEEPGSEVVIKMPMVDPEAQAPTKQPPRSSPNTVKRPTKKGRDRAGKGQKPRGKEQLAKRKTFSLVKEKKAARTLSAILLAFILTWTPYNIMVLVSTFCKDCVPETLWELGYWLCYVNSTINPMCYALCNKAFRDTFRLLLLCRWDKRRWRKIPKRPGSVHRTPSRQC
As to the kind of experiment: mAChR M1 cell-based functional assay: calcium mobilization, positive allosteric modulator mode (increase in EC20 acetylcholine response). The conditions noted are these: for Emax: read-out: Human M1 Emax (%). In a few lines: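 Calcium-flux assay in CHO-K1 cells stably expressing human M1, loaded with Fluo-4 AM (50 min, 37 °C) and read at 1 Hz. Compound (11-point, 1:3 series) was added at 4 s, EC20 acetylcholine at 144 s and EC80 at 230 s. PAM activity is the concentration-dependent rise in the EC20 response, fitted with a four-parameter logistic.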

The mark [1] stands for this setting: Table 2, human M1, read-out: Human M1 EC50.
Where [2] appears, read: Table 1, mAChR M1 cell-based functional assay, PAM mode, species not given, read-out: EC50.

`O=C(N[C@H]1CCOC1)c1cc(Cc2ccc(-c3cscn3)cc2)c2sccc2n1` [Compound 208, N-[(3S)-tetrahydrofuran-3-yl]-7-[(4-thiazol-4-ylphenyl)methyl]thieno[3,2-b]pyridine-5-carboxamide]: the EC50 under setting [1] was determined as 1880 nM. The maximal response (Emax) (Table 2, human M1) came out at 80.3%.
With `Cn1cc(-c2ccc(Cc3cc(C(=O)NC[C@@H]4CCCO4)nc4ccsc34)cn2)cn1` [Compound 349, 7-[[6-(1-methylpyrazol-4-yl)-3-pyridyl]methyl]-N-[[(2S)-tetrahydrofuran-2-yl]methyl]thieno[3,2-b]pyridine-5-carboxamide], the 50% effective concentration (EC50) under setting [1] was 25.4 nM. For the same compound, the maximal response (Emax) (Table 2, human M1) came out at 89.8%.
For `Cn1ccc(-c2ccc(Cc3cc(C(=O)N[C@@H]4COCC[C@H]4O)nc4ccsc34)cn2)n1` [Compound 410] the same measures were 56.2 nM and 63.4%.
On to `Cc1nc(-c2ccc(Cc3cc(C(=O)NC4CCCCC4)nc4ccsc34)cc2)cs1` [Compound 185, N-cyclohexyl-7-[[4-(2-methylthiazol-4-yl)phenyl]methyl]thieno[3,2-b]pyridine-5-carboxamide], for which the half-maximal effective concentration (EC50) under setting [1] stood at 4230 nM. Further, for the setting “Table 2, human M1”, the Emax stood at 52.1%.
As for “7-[[6-(1-methylpyrazol-4-yl)-3-pyridyl]methyl]-N-tetrahydropyran-4-yl-thieno[3,2-b]pyridine-5-carboxamide [Compound 301]”, where the note is “Table 2, human M1”, the “Human M1 Emax (%)” value was determined as 71.87%. In addition, the EC50 under setting [1] turned out to be 42.3 nM.
On to `O=C(NC1CC2(COC2)C1)c1cc(Cc2ccc(-c3cncs3)cc2)c2sccc2n1` [Compound 398, N-(2-oxaspiro[3.3]heptan-6-yl)-7-[(4-thiazol-5-ylphenyl)methyl]thieno[3,2-b]pyridine-5-carboxamide], for which, under setting [1], the EC50 stood at 438 nM. Further, the Emax (Table 2, human M1) was determined as 60.9%.
For `Cc1csc2c(Cc3ccc(-n4cccn4)cc3)cc(C(=O)NCC3CCOC3)nc12` (centres unmarked) [Compound 321, 3-methyl-7-[(4-pyrazol-1-ylphenyl)methyl]-N-(tetrahydrofuran-3-ylmethyl)thieno[3,2-b]pyridine-5-carboxamide], in that order: 805 nM and 79.2%.
For `Cn1ccc(-c2ccc(Cc3cc(C(=O)N[C@H]4CCOC[C@@H]4O)nc4ccsc34)cc2)n1` [Compound 255, N-[(3R,4S)-3-hydroxytetrahydropyran-4-yl]-7-[[4-(1-methylpyrazol-3-yl)phenyl]methyl]thieno[3,2-b]pyridine-5-carboxamide], the EC50 under setting [1] came out at 5.76 nM. Besides, the Emax (Table 2, human M1) was determined as 47%.
For `Cn1cc(-c2ccc(Cc3cc(C(=O)NC4CCOC(C)(C)C4)nc4ccsc34)cc2)cn1` (centres unmarked) [Compound 381, N-(2,2-dimethyltetrahydropyran-4-yl)-7-[[4-(1-methylpyrazol-4-yl)phenyl]methyl]thieno[3,2-b]pyridine-5-carboxamide] the same measures were 98.1 nM and 60.4%.
In the case of `O=C(N[C@@H]1COCC[C@H]1O)c1cc(Cc2ccc(C(F)(F)F)nc2)c2sccc2n1` [Compound 92, N-[(3R,4R)-4-hydroxytetrahydropyran-3-yl]-7-[[6-(trifluoromethyl)-3-pyridyl]methyl]thieno[3,2-b]pyridine-5-carboxamide], the EC50 under setting [1] was greater than 10000 nM. Also, the Emax (Table 2, human M1) stood at 66.8%.
For `Cc1csc2c(Cc3ccc(-n4cccn4)cc3)cc(C(=O)N[C@H]3CC[C@@H]3O)nc12` [Compound 113, N-[(1S,2S)-2-hydroxycyclobutyl]-3-methyl-7-[(4-pyrazol-1-ylphenyl)methyl]thieno[3,2-b]pyridine-5-carboxamide] the same measures were 985 nM and 83.8%.
For `Cc1csc2c(Cc3ccc(-n4cccn4)cc3)cc(C(=O)NC[C@H]3CCCO3)nc12` [Compound 322, 3-methyl-7-[(4-pyrazol-1-ylphenyl)methyl]-N-[[(2R)-tetrahydrofuran-2-yl]methyl]thieno[3,2-b]pyridine-5-carboxamide] the same measures were 620 nM and 75.1%.
For `Cc1ncc(Cc2cc(C(=O)NC3CCOCC3)nc3ccsc23)cn1` [Compound 126, 7-[(2-methylpyrimidin-5-yl)methyl]-N-tetrahydropyran-4-yl-thieno[3,2-b]pyridine-5-carboxamide], in that order: greater than 10000 nM and 27.4%.
Consider `O=C(N[C@@H]1CCCCC[C@H]1O)c1cc(Cc2ccc(-n3cccn3)cc2)c2sccc2n1` [Compound 77, N-[(1R,2R)-2-hydroxycycloheptyl]-7-[(4-pyrazol-1-ylphenyl)methyl]thieno[3,2-b]pyridine-5-carboxamide], for which, under setting [1], the EC50 amounted to 136 nM. The Emax (Table 2, human M1) worked out at 84.8%.
For `O=C(NCC1CCOC1)c1cc(Cc2ccc(-c3nccs3)cc2)c2sccc2n1` (centres unmarked) [Compound 374, N-(tetrahydrofuran-3-ylmethyl)-7-[(4-thiazol-2-ylphenyl)methyl]thieno[3,2-b]pyridine-5-carboxamide], in that order: 556 nM and 73.1%.
Consider `O=C(NCC1CCOCC1)c1cc(Cc2ccc(-c3nccs3)cc2)c2sccc2n1` [Compound 298, N-(tetrahydropyran-4-ylmethyl)-7-[(4-thiazol-2-ylphenyl)methyl]thieno[3,2-b]pyridine-5-carboxamide], for which the EC50 under setting [1] was found to be 368 nM. Under “Table 2, human M1”, the Emax was found to be 45.5%.
Consider `Cc1nc(-c2ccc(Cc3cc(C(=O)NC4CCOCC4)nc4ccsc34)cc2)co1` [Compound 230, 7-[[4-(2-methyloxazol-4-yl)phenyl]methyl]-N-tetrahydropyran-4-yl-thieno[3,2-b]pyridine-5-carboxamide], for which the half-maximal effective concentration (EC50) under setting [1] amounted to 175 nM. For the same compound, the Emax (Table 2, human M1) was 77.7%.
For `Cc1ccc(Cc2cc(C(=O)NC3COC3)nc3ccsc23)cn1` [Compound 258, 7-[(6-methyl-3-pyridyl)methyl]-N-(oxetan-3-yl)thieno[3,2-b]pyridine-5-carboxamide] the same measures were greater than 10000 nM and 27.5%.
For `Cn1ccc(-c2ccc(Cc3cc(C(=O)NCC4CCCCO4)nc4ccsc34)cn2)n1` (centres unmarked) [Compound 359, 7-[[6-(1-methylpyrazol-3-yl)-3-pyridyl]methyl]-N-(tetrahydropyran-2-ylmethyl)thieno[3,2-b]pyridine-5-carboxamide] the same measures were 573 nM and 83.4%.
For `Cc1nc(-c2ccc(Cc3cc(C(=O)NC4(C)COC4)nc4ccsc34)cc2)cs1` [Compound 177, N-(3-methyloxetan-3-yl)-7-[[4-(2-methylthiazol-4-yl)phenyl]methyl]thieno[3,2-b]pyridine-5-carboxamide], the concentration for a half-maximal effect (EC50) under setting [1] was greater than 10000 nM. Moreover, the maximal effect (Emax) (Table 2, human M1) is 39.7%.
For `Cc1nc(-c2ccc(Cc3cc(C(=O)N[C@@H]4CCOC4)nc4ccsc34)cc2)co1` [Compound 160, 7-[[4-(2-methyloxazol-4-yl)phenyl]methyl]-N-[(3R)-tetrahydrofuran-3-yl]thieno[3,2-b]pyridine-5-carboxamide], in that order: 3930 nM and 77.5%.
For `CC1(NC(=O)c2cc(Cc3ccc(-n4cccn4)cc3)c3sccc3n2)CCCNC1` (centres unmarked) [Compound 291, N-(3-methyl-3-piperidyl)-7-[(4-pyrazol-1-ylphenyl)methyl]thieno[3,2-b]pyridine-5-carboxamide] the same measures were 1120 nM and 64.3%.
`Cc1ccc(Oc2cc(C(=O)N[C@H]3CCCC[C@@H]3O)nc3ccsc23)cn1` [Compound 21, N-[(1S,2S)-2-hydroxycyclohexyl]-7-[(6-methyl-3-pyridyl)oxy]thieno[3,2-b]pyridine-5-carboxamide]: the 50% effective concentration (EC50) under setting [2] was 1140 nM.
Take `Cc1nc(-c2ccc(Cc3cc(C(=O)NC4CCN5CCCC45)nc4ccsc34)cc2)cs1` (centres unmarked) [Compound 197, N-(hexahydro-1H-pyrrolizin-1-yl)-7-[[4-(2-methylthiazol-4-yl)phenyl]methyl]thieno[3,2-b]pyridine-5-carboxamide]: the EC50 under setting [1] is 1380 nM. Further, the Emax (Table 2, human M1) was 80.8%.
With `O=C(NC1CCOCC1)c1cc(Cc2ccc(-c3nccs3)cc2)c2sccc2n1` [Compound 296], the EC50 under setting [1] was 273 nM. In addition, under “Table 2, human M1”, the maximal response (Emax) is 79.9%.
Turning to `Cc1ccc(Cc2cc(C(=O)N[C@H]3CCOC[C@@H]3O)nc3ccsc23)cn1` [Compound 45, N-[(3R,4S)-3-hydroxytetrahydropyran-4-yl]-7-[(6-methyl-3-pyridyl)methyl]thieno[3,2-b]pyridine-5-carboxamide], the EC50 under setting [2] was found to be 80 nM.
On to `O=C(N[C@H]1CC[C@@H]1O)c1cc(Cc2ccc(-c3cncs3)cc2)c2sccc2n1` [Compound 405], for which the EC50 under setting [1] was 428 nM. The Emax (Table 2, human M1) was found to be 73.5%.
In the case of `Cn1ccc(-c2ccc(Cc3cc(C(=O)NCC4CCOC4)nc4ccsc34)cn2)n1` (centres unmarked) [Compound 356, 7-[[6-(1-methylpyrazol-3-yl)-3-pyridyl]methyl]-N-(tetrahydrofuran-3-ylmethyl)thieno[3,2-b]pyridine-5-carboxamide], the concentration for a half-maximal effect (EC50) under setting [1] turned out to be 390 nM. The Emax (Table 2, human M1) came out at 84.8%.
As for `Cn1cc(-c2ccc(Oc3cc(C(=O)N[C@H]4CCCCC[C@@H]4O)nc4ccsc34)c(F)c2)cn1` [Compound 9], under setting [2], the EC50 is greater than 10000 nM.
In the case of `Cn1cc(-c2ccc(Oc3cc(C(=O)N[C@H]4COCC[C@@H]4O)nc4ccsc34)c(F)c2)cn1` [Compound 8], the 50% effective concentration (EC50) under setting [2] was determined as 7790 nM.
